What all share (assay type): cell-based
The subject of one test is Bacillus subtilis. The experiment in a line: Minimum inhibitory concentration (MIC) measurement. The settings on record: 37° C., about 20 hours, aerobic. The method, then:
(§1) Minimum inhibitory concentrations (MICs) of each of the bacteria shown in Table 1 were measured for the MEL and rhamnolipids by the following procedures.
(§2) The above-mentioned bacteria were precultured in a bouillon medium for sensitivity determination (NISSUI PHARMACEUTICAL CO., LTD.). The concentrations of the bacteria in the culture solutions were adjusted to about 1.0×10^5 to 10^6 CFU/ml with physiological saline, and the bacteria were inoculated into the measurement mediums. As the measurement mediums, a medium for sensitivity measurement (NISSUI PHARMACEUTICAL CO., LTD.) was used for Staphylococcus aureus, Staphylococcus epidermidis, and Bacillus subtilis, and a blood agar medium (heart infusion medium: NISSUI PHARMACEUTICAL CO., LTD., sheep sterile defibrinated blood: Kohjin Bio Co. Ltd.) was used for Streptococcus suis and Streptococcus bovis. Culture was performed at 37° C. for about 20 hours under aerobic conditions for Staphylococcus aureus, Staphylococcus epidermidis, and Bacillus subtilis or under 5% CO2 conditions for Streptococcus suis and Streptococcus bovis. After completion of culture, the MICs were measured.
(§3) The MEL crude purified product obtained in section <1> (purity 69%) was used as MEL, and the rhamnolipid crude purified product obtained in section <2> (purity 55%) was used as rhamnolipids. Meanwhile, for the purpose of comparison, MICs of sucrose ester (sucrose manodecanoate: manufactured by SIGMA-ALDRICH Japan K.K.), mannose (manufactured by Wako Pure Chemical Industries, Ltd.), and rhamnose (manufactured by SIGMA-ALDRICH Japan K.K.) were measured.

The next test has as its system Staphylococcus aureus. The experiment in a line: Minimum inhibitory concentration (MIC) measurement. The settings on record: 37° C., about 20 hours, aerobic. The method, then: as §1, §2, §3
The subject of test [1] is Staphylococcus epidermidis. In words: Minimum inhibitory concentration (MIC) measurement. The settings on record: 37° C., about 20 hours, aerobic. The method, then: as §1, §2, §3
A further test concerns Streptococcus bovis. In words: Minimum inhibitory concentration (MIC) measurement. The conditions noted are these: blood agar medium, 37° C., about 20 hours, 5% CO2. The protocol: as §1, §2, §3
A further test deals with Streptococcus suis. In words: Minimum inhibitory concentration (MIC) measurement. The settings on record: blood agar medium, 37° C., about 20 hours, 5% CO2. The method, then:
as §1, §2, §3

Test [2] deals with Staphylococcus, Streptococcus, and Bacillus bacteria. The experiment in a line: Evaluation of antibiotic activities (summary over the tested bacteria). The conditions noted are these: result in words. The method, then:
as §1
as §2, with “Culture was performed at 37° C. for about 20 hours under aerobic conditions for Staphylococcus aureus, Staphylococcus epidermidis, and Bacillus subtilis or under 5% CO2 conditions for Streptococcus suis and Streptococcus bovis.” left out
as §3

As to `C[C@H](O)[C@H](O)[C@@H](O)[C@@H](O)C=O` [Rhamnose, rhamnose], the “Minimum inhibitory concentration (MIC)” value (in the test on Bacillus subtilis; in the test with Staphylococcus aureus; in test [1]; in the test on Streptococcus bovis; in the test with Streptococcus suis) was below 1600 throughout. In addition, the antibiotic activities result in test [2] is “no antibiotic activities”.

For sucrose manodecanoate [Sucrose ester], the “Minimum inhibitory concentration (MIC)” value with Bacillus subtilis was 400; in the test with Staphylococcus aureus, below 1600; in test [1], below 1600; with Streptococcus bovis it was 800; in the test on Streptococcus suis, 800.

The record behind these values is patent US20100249058A1, “FEED ADDITIVE AND FEED” (IDEMITSU KOSAN CO., LTD., priority 2006, published 2010).
